In general, Km refers to the concentration of substrate that gives half-maximal velocity.

The target in test [1] is T1, E. blattae 1,3-propanediol dehydrogenase (PDD), mutant His 105 to Leu, ATCC PTA-92 (Eb_GEBT), SEQ ID NO: 2 (Shimwellia blattae, UniProt Q3ZL59, H105L).
T1 construct: concentrated on PM30 membrane
T1 sequence (Q3ZL59 1-387 H105L): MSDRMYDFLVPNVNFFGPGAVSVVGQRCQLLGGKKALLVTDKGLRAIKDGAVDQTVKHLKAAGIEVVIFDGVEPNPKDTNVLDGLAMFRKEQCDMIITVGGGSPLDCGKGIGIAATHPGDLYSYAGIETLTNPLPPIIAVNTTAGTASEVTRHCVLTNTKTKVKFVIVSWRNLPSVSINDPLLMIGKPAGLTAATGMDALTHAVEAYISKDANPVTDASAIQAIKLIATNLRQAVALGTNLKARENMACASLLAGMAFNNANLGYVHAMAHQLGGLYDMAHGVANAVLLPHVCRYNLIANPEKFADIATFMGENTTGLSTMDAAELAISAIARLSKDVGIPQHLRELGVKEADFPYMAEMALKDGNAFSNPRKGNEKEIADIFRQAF
The experiment in a line: Kinetics of mutant 1,3-propanediol dehydrogenase (PDD), partially purified from E. blattae 33429 derivative PTA-92. The test is classed as biochemical, Escherichia blattae. As for the experimental part:
(§1) Strains—Wild type ATCC 33429, E. blattae comprising the mutant PDD ATCC accession number PTA-92.
(§2) Growth—Cells were grown in a complex medium at 30C 500 ml in a 2800 ml fernbach with shaking at 225 rpm for 20 hr. The medium consists of KH2PO4, 5.4 g/L; (NH4)2SO4, 1.2 g/L; MgSO47H2O, 0.4 g/L; yeast extract, 2.0 g/L; tryptone, 2.0 g/L; and glycerol, 9.2 g/L in tap water. The pH was adjusted to 7.1 with KOH before autoclaving (Honda, et al., 1980, J. Bacteriol, 143:1458-1465).
(§3) Extract prep—Cells were harvested by centrifugation with care to avoid anaerobic conditions. Pellets were resuspended in 100 mM Tricine pH 8.2 containing 50 mM KCl and 1 mM DTT. Cells were disrupted by passage through a French pressure cell. Crude extracts were clarified by centrifugation at 20 K×g for 20 min followed by 100 K×g for 1 hr to yield the high speed supernatant (HSS) fraction.
(§4) Assays—the assay for PDD was performed as described by Johnson, E. A. et al., 1987, J. Bacteriol. 169:2050-2054.
Partial purification of PDD—HSS was separated on a 16×100 Poros 20HQ column. The buffers were A, 60 mM HEPES, pH 7.4 containing 100 uM MnCl and B, A buffer containing 500 mM KCl. The column was loaded and developed at 10 ml/min. The gradient was 10 CV wash. A linear gradient to 70% B in 10 CV, and 1 CV to 100% B. The activity was detected in the very early fractions of the gradient. Pooled column fractions of the 33429 strain were used as collected for assays after the addition of additional DTT to 1 mM. The active fractions from the E. blattae 33429 derivative strain assigned designation PTA-92 were pooled and concentrated on a PM30 membrane and used as concentrated after the addition of additional 1 mM DTT.

Test [2] deals with T2, E. blattae 1,3-propanediol dehydrogenase (PDD), wild type, strain ATCC 33429 (Eb_429T), SEQ ID NO: 6 (Shimwellia blattae, UniProt Q3ZL59).
T2 sequence (Q3ZL59 1-387): T1 sequence (Q3ZL59 1-387 H105L) with L105H
The experiment in a line: Kinetics of wild-type 1,3-propanediol dehydrogenase (PDD), partially purified from E. blattae ATCC 33429. Format: biochemical, Escherichia blattae. To be noted: wild type strain 33429, pooled column fractions with 1 mM DTT. As for the experimental part: as §1, §2, §3, §4
Partial purification of PDD—HSS was separated on a 16×100 Poros 20HQ column. The buffers were A, 60 mM HEPES, pH 7.4 containing 100 uM MnCl and B, A buffer containing 500 mM KCl. The column was loaded and developed at 10 ml/min. The gradient was 10 CV wash. A linear gradient to 70% B in 10 CV, and 1 CV to 100% B. The activity was detected in the very early fractions of the gradient. […]

Where a chain is given by its changes, count along the chain named. Read-outs that look alike come from different tables or passages of the source.

In the case of `NC(=O)c1ccc[n+]([C@@H]2O[C@H](COP(=O)([O-])OP(=O)(O)OC[C@H]3O[C@@H](n4cnc5c(N)ncnc54)[C@H](O)[C@@H]3O)[C@@H](O)[C@H]2O)c1` [NAD], in test [1] (mutant PDD), the “Km for NAD (change in words)” value is “altered”. The Km in test [2] (read-out: Km (NAD)) was 0.057 mM.
Consider `OCCCO` [1,3-propanediol], for which the “Km for 1,3-propanediol (change in words)” value in test [1] (mutant PDD) is listed as “altered”. Also, in test [1] (mutant PDD vs wild-type PDD), the “Km of the mutant PDD relative to Km of wild-type PDD for 1,3-propanediol” value was “about 3 times”. For the same compound, in test [2] (read-out: Km (Propanediol)), the Km stood at 28 mM.
